{
  "source": "PubChem BioAssay AID1918999",
  "about": "(Molecular Pharmacology Branch, DTP, NCI, 2023)",
  "system": "556581-035-R-J1-PDC complex spheroid growth",
  "experiment": "Anticancer human tumor 556581-035-R-J1-PDC patient-derived ovarian carcinoma cell line growth inhibition [AhR]",
  "settings": "for IC50: curve of first compound; for viability, T/C: stronger effect = lower value",
  "source_text": "Multicellular complex tumor spheroid response to aryl hydrocarbon receptor antagonists in combination with a variety of drugs and investigational agents in selected tumor cell lines\nThe current study was undertaken to assess response to aryl hydrocarbon receptor antagonists in combination with standard-of-care drugs and investigational agents in solid tumor complex spheroid models. Complex spheroids include a stromal component modeled by human endothelial cells (HUVEC) and fibroblasts modeled by human mesenchymal stem cells (MSCs). The concentration ranges selected for each drug and investigational agent were based upon clinically achievable concentrations if the clinical Cmax of the agent was known.\nCompounds. The drugs and investigational agents: BAY 2416964 (NSC825713), GNF351 (NSC835774), CH-223191 (NSC835775), CPI-455 (NSC825282), aza-TdCyd (NSC777586), decitabine (NSC127716), belinostat (NSC758774), entinostat (NSC756642), pevonedistat (NSC761192), tazemetostat (NSC777109), talazoparib (NSC765396), olaparib (NSC753686), selinexor (NSC780203), nedisertib (M3814, NSC802822), bortezomib (NSC756655), venetoclax (NSC766270), doxorubicin (NSC123127), elimusertib (BAY189344, NSC800525), ceralasertib (AZD6738, NSC777638), TAK-243 (NSC785004), alisertib (NSC759677), etoposide (NSC141540), topotecan (NSC609699), eribulin (NSC707389), gemcitabine (NSC613327), carboplatin (NSC241240), cisplatin (NSC119875), and SN-38 (NSC673596) were obtained from the National Cancer Institute (NCI) Developmental Therapeutics Program Chemical Repository (32). The FDA-approved anticancer drug set is available from the Developmental Therapeutics Program at https://dtp.cancer.gov/organization/dscb/obtaining/available plates.htm. […] The stock solutions were prepared in dimethyl sulfoxide (DMSO, Sigma-Aldrich, St. Louis, MO, cat. D2650), except for the platinum compounds which were prepared in saline (Quality Biological, Gaithersburg, MD, cat. 114-055-101), at 800-fold the tested concentration and stored at -70 degrees C prior to their use. All drugs and investigational agents were tested over a range starting from a high concentration at or near the clinical Cmax and decreasing in half-log increments. If the clinical Cmax for an agent had not been determined, the highest concentration tested was 10 microM (Table 1).\nCell Culture. All cells were maintained in an incubator at 37 degrees C and 5% CO2 with 95% humidity. The PDC lines were cultured according to standard operating procedures established by the NCI PDMR (https://pdmr.cancer.gov). Briefly, all PDCs were thawed and cultured in Matrigel-coated flasks prepared with a working solution of 1X Ham's F-12 nutrient mix, without supplementation (Invitrogen, Waltham, MA, cat. 11765054), 100 U/mL penicillin-streptomycin (Invitrogen, cat. 15140122), and 2.5% Matrigel (Corning Inc., Corning, NY, cat. 354248) for the first three passages. All PDCs were cultured in complete DMEM/F-12 media containing advanced DMEM/F-12 (Invitrogen, cat. 12634028), 4.9% defined fetal bovine serum, heat inactivated (HyClone Laboratories Inc., Logan, UT, cat. SH30070.03HI), 389 ng/mL hydrocortisone (Sigma-Aldrich, cat. H4001), 9.7 ng/mL human EGF recombinant protein (Invitrogen, cat. PHG0313), 23.4 microg/mL adenine (Sigma-Aldrich, cat. A2786), 97.3 U/mL penicillin-streptomycin (Invitrogen, cat. 15140122), 1.9 mM L-glutamine (Invitrogen, cat. 25030081), and 9.7 microM Y-27632 dihydrochloride (Tocris Bioscience, Bristol, United Kingdom, cat. 1254). The PDCs were cultured in complete DMEM/F12 media without 10 microM Y-27632 dihydrochloride for at least two passages prior to the screen. The established cell lines NCI-H1341 and […] were cultured in DMEM/F-12, HEPES (Invitrogen, cat. 11330032), 5% defined fetal bovine serum (HyClone Laboratories Inc., cat. SH30070.03), ITS premix universal culture supplement [insulin (5 microg/mL), transferrin (5 microg/mL), and selenious acid (5 ng/mL)] […]",
  "data": [
    {"compound": "CC(C)CC(NC(=O)C(Cc1ccccc1)NC(=O)c1cnccn1)B(O)O", "note": "(stereo not given) + CC(CO)NC(=O)c1cc(-c2ccc(Cl)cc2)nn(-c2cnn(C)c2)c1=O;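 as to viability, T/C: compound exposure lasted 7 days; 100% = DMSO vehicle control growth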", "values": [
      {"measurement": "IC50", "setting": "second compound 0.1 µM", "result": 5, "unit": "nM"},
      {"measurement": "IC50", "setting": "second compound 0.316 µM", "result": 4.57, "unit": "nM"},
      {"measurement": "IC50", "setting": "second compound 1 µM", "result": 5.43, "unit": "nM"},
      {"measurement": "IC50", "setting": "second compound 3.16 µM", "result": 4.7, "unit": "nM"},
      {"measurement": "IC50", "setting": "second compound 10 µM", "result": 5.22, "unit": "nM"},
      {"measurement": "viability, T/C", "setting": "second compound 0.1 µM, first compound 0.000949 µM", "result": 91.6, "unit": "%"},
      {"measurement": "viability, T/C", "setting": "second compound 0.1 µM, first compound 0.003 µM", "result": 88.4, "unit": "%"},
      {"measurement": "viability, T/C", "setting": "second compound 0.1 µM, first compound 0.00949 µM", "result": 1.95, "unit": "%"},
      {"measurement": "viability, T/C", "setting": "second compound 0.1 µM, first compound 0.03 µM", "result": 0.49, "unit": "%"},
      {"measurement": "viability, T/C", "setting": "second compound 0.1 µM, first compound 0.0949 µM", "result": 0.12, "unit": "%"},
      {"measurement": "viability, T/C", "setting": "second compound 0.1 µM, first compound 0.3 µM", "result": 0.33, "unit": "%"},
      {"measurement": "viability, T/C", "setting": "second compound 0.316 µM, first compound 0.000949 µM", "result": 106, "unit": "%"},
      {"measurement": "viability, T/C", "setting": "second compound 0.316 µM, first compound 0.003 µM", "result": 77.9, "unit": "%"},
      {"measurement": "viability, T/C", "setting": "second compound 0.316 µM, first compound 0.00949 µM", "result": 1.51, "unit": "%"},
      {"measurement": "viability, T/C", "setting": "second compound 0.316 µM, first compound 0.03 µM", "result": 2.26, "unit": "%"},
      {"measurement": "viability, T/C", "setting": "second compound 0.316 µM, first compound 0.0949 µM", "result": 0.2, "unit": "%"},
      {"measurement": "viability, T/C", "setting": "second compound 0.316 µM, first compound 0.3 µM", "result": 0.8, "unit": "%"},
      {"measurement": "viability, T/C", "setting": "second compound 1 µM, first compound 0.000949 µM", "result": 105, "unit": "%"},
      {"measurement": "viability, T/C", "setting": "second compound 1 µM, first compound 0.003 µM", "result": 99.7, "unit": "%"},
      {"measurement": "viability, T/C", "setting": "second compound 1 µM, first compound 0.00949 µM", "result": 3.31, "unit": "%"},
      {"measurement": "viability, T/C", "setting": "second compound 1 µM, first compound 0.03 µM", "result": 0.19, "unit": "%"},
      {"measurement": "viability, T/C", "setting": "second compound 1 µM, first compound 0.0949 µM", "result": 0.15, "unit": "%"},
      {"measurement": "viability, T/C", "setting": "second compound 1 µM, first compound 0.3 µM", "result": 0.27, "unit": "%"},
      {"measurement": "viability, T/C", "setting": "second compound 3.16 µM, first compound 0.000949 µM", "result": 85.7, "unit": "%"},
      {"measurement": "viability, T/C", "setting": "second compound 3.16 µM, first compound 0.003 µM", "result": 81, "unit": "%"},
      {"measurement": "viability, T/C", "setting": "second compound 3.16 µM, first compound 0.00949 µM", "result": 0.92, "unit": "%"},
      {"measurement": "viability, T/C", "setting": "second compound 3.16 µM, first compound 0.03 µM", "result": 2.07, "unit": "%"},
      {"measurement": "viability, T/C", "setting": "second compound 3.16 µM, first compound 0.0949 µM", "result": 1.26, "unit": "%"},
      {"measurement": "viability, T/C", "setting": "second compound 3.16 µM, first compound 0.3 µM", "result": 1.55, "unit": "%"},
      {"measurement": "viability, T/C", "setting": "second compound 10 µM, first compound 0.000949 µM", "result": 99.6, "unit": "%"},
      {"measurement": "viability, T/C", "setting": "second compound 10 µM, first compound 0.003 µM", "result": 94.2, "unit": "%"},
      {"measurement": "viability, T/C", "setting": "second compound 10 µM, first compound 0.00949 µM", "result": 2.36, "unit": "%"},
      {"measurement": "viability, T/C", "setting": "second compound 10 µM, first compound 0.03 µM", "result": 0.3, "unit": "%"},
      {"measurement": "viability, T/C", "setting": "second compound 10 µM, first compound 0.0949 µM", "result": 0.55, "unit": "%"},
      {"measurement": "viability, T/C", "setting": "second compound 10 µM, first compound 0.3 µM", "result": 0.95, "unit": "%"}
    ]}
  ]
}
